From US20250304549A1, “HYDROXYAMIDE DERIVATIVE AND USE THEREOF” (SICHUAN HUIYU PHARMACEUTICAL CO., LTD., priority 2022, published 2025)
Structures can show the parent of a compound that is named as a salt. One block for each compound: values may come before it.

What was measured:
pan-HDAC = assay: In vitro enzyme inhibition assay - HDAC (HDAC-Glo I/II), pan-HDAC; format: biochemical
How it was run: (§1)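 Eight compound concentrations (5-fold gradient; 1 mM DMSO stock) were assayed by HDAC-Glo I/II luminescence. IC50 was obtained by four-parameter fitting.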

NCI-H69 cells = assay: In vitro cell inhibition assay - NCI-H69 cell proliferation (CellTiter-Glo); format: cell-based
How it was run: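 Over 7 days at 37° C. and 5% CO2, cells grew in RPMI-640 supplemented with 20% FBS in the presence of eight 5-fold-spaced compound concentrations.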

HDAC8 = HDAC8 (Homo sapiens (Human), UniProt Q9BY41); assay: In vitro enzyme inhibition assay - HDAC (HDAC-Glo I/II), HDAC8; format: biochemical; conditions: read-out: HDAC IC50 (nM) HDAC 8
HDAC8, sequence (Q9BY41 whole entry): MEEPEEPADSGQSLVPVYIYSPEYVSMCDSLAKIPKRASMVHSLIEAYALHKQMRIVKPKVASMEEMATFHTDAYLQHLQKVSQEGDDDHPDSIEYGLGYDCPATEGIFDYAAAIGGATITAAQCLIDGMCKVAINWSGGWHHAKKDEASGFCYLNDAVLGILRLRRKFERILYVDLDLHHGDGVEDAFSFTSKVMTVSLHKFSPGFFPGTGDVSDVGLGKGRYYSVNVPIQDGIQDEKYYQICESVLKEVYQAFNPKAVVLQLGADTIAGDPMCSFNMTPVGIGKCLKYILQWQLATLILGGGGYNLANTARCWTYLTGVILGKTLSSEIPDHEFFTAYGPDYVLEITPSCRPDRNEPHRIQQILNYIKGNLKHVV
How it was run: as §1

LSD1 = LSD1 (Homo sapiens (Human), UniProt O60341); assay: In vitro enzyme inhibition assay - LSD1 (HTRF); format: biochemical
NCI-H1417 cells = assay: In vitro cell inhibition assay - H1417 cell proliferation (CellTiter-Glo); format: cell-based
How it was run: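 Cells exposed to 8 compound concentrations (5-fold dilutions) in BEGM with 10% FBS for 7 days at 37° C., 5% CO2. Viable cells measured by CellTiter-Glo luminescence; inhibition versus no-inhibitor and no-cell controls, IC50 fitted.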

DU145 cells = assay: In vitro cell inhibition assay - DU145 cell proliferation (CellTiter-Glo); format: cell-based
Experimental: 5. In Vitro Cell Inhibition Assay—DU145 Cell Proliferation
The inhibitory effect of the compounds on cell proliferation was assessed by detecting the number of viable cells using the CellTiter-Glo® reagent. DU145 cells in the logarithmic growth phase were collected and inoculated into transparent bottom 96-well plates at a density 1×10^3 cells per well with 100 μL medium, and incubated at 37° C., 5% CO2 overnight. The compounds were sequentially diluted in a 5-fold concentration gradient with DMSO to obtain 8 different concentrations. These were then diluted with RPMI-640 (containing 10% FBS) cell culture medium to obtain the compound working solution (2×), which was added to the cell supernatant at 100 μL per well. The incubation continued for 6 days at 37° C., 5% CO2. The plate was then removed and equilibrated at room temperature (25° C.) along with the CellTiter-Glo® mixing reagent for 10-30 minutes. After centrifugation, 120 μL of the culture medium was carefully aspirated from each well, and 60 μL of CellTiter-Glo® reagent was added. The cells were thoroughly mixed with the CellTiter-Glo® mixing reagent using a microplate shaker for 2 min. and then incubated at room temperature for 10 min. The 96-well plate was subsequently placed on a multifunctional microplate reader to record the Luminescence values (RLU).
The inhibition rate was calculated using the following formula: […]
Note: ‘Negative’ refers to the group without inhibitors; ‘Blank’ refers to the group without cells.
The IC50 value was determined by fitting the inhibition rate by GraphPad Prism software.

[1] = Homo sapiens, NCI-H69, H69 small cell lung cancer cell proliferation
[2] = Homo sapiens, NCI-H1417, H1417 small cell lung cancer cell proliferation
[3] = Homo sapiens, DU-145, Du145 prostate cancer cell proliferation

Compound: COc1cc(-c2cnc(N3CC4CC3CC4NCc3ccc(/C=C/C(=O)NO)cc3)c(C#N)c2-c2ccc(C#N)c(F)c2)ccc1O (stereo not drawn) [Example 94, (E)-3-(4-(2-(3-Cyano-4-(4-cyano-3-fluorophenyl)-5-(4-hydroxy-3-methoxyphenyl)pyridin-2-yl)-2-azabicyclo[2.2.1]heptan-5-yl)amino)methyl) phenyl)-N-hydroxyacrylamide formate]
- IC50 (pan-HDAC): 110 nM
- IC50 (NCI-H69 cells; H69 small cell lung cancer cell proliferation): 0.19 µM
- IC50 (HDAC8): 256 nM
- IC50 (LSD1): 0.173 µM
- IC50 (NCI-H1417 cells; H1417 small cell lung cancer cell proliferation): 0.161 µM
- IC50 (DU145 cells; Du145 prostate cancer cell proliferation): 0.495 µM

Compound: COc1cc(-c2cnc(N3CCC(NCc4ccc(/C=C/C(=O)NO)cn4)CC3)c(C#N)c2-c2ccc(C#N)c(F)c2)ccc1O [Example 95, (E)-3-(6-((1-(3-Cyano-4-(4-cyano-3-fluorophenyl)-5-(4-hydroxy-3-methoxyphenyl)pyridin-2-yl)piperidin-4-yl)amino)methyl) pyridin-3-yl)-N-hydroxyacrylamide formate]
- IC50 (pan-HDAC): 49 nM
- IC50 (NCI-H69 cells; [1]): 0.304 µM
- IC50 (HDAC8): 87.2 nM
- IC50 (LSD1): 0.0636 µM
- IC50 (NCI-H1417 cells; [2]): 0.335 µM
- IC50 (DU145 cells; [3]): 0.628 µM

Compound: COc1cc(-c2cnc(N3CCC(NCc4cccc(/C=C/C(=O)NO)c4)CC3)c(C#N)c2-c2ccc(C#N)c(F)c2)ccc1O [Example 98, (E)-3-(3-((1-(3-Cyano-4-(4-cyano-3-fluorophenyl)-5-(4-hydroxy-3-methoxyphenyl)pyridin-2-yl)piperidin-4-yl)amino)methyl) phenyl)-N-hydroxyacrylamide formate]
- IC50 (pan-HDAC): 394 nM
- IC50 (NCI-H69 cells; [1]): 0.528 µM
- IC50 (HDAC8): 480 nM
- IC50 (LSD1): 0.16 µM
- IC50 (NCI-H1417 cells; [2]): 0.707 µM
- IC50 (DU145 cells; [3]): 2.23 µM

Compound: COc1cc(-c2cnc(N3CCC(N(C)Cc4ccc(/C=C/C(=O)NO)cc4)CC3)c(C#N)c2-c2ccc(C#N)c(F)c2)ccc1O [Example 99, (E)-3-(4-(((1-(3-Cyano-4-(4-cyano-3-fluorophenyl)-5-(4-hydroxy-3-methoxyphenyl)pyridin-2-yl)piperidin-4-yl)(methyl)amino)methyl)phenyl)-N-hydroxyacrylamide formate]
- IC50 (pan-HDAC): 50.9 nM
- IC50 (NCI-H69 cells; [1]): 0.0973 µM
- IC50 (HDAC8): 120 nM
- IC50 (LSD1): 0.0095 µM
- IC50 (NCI-H1417 cells; [2]): 0.0118 µM
- IC50 (DU145 cells; [3]): 0.122 µM

Compound: COc1cc(-c2cnc(N3CCC(NCc4ccc(/C=C/C(=O)NO)cc4)CC3)c(C#N)c2-c2ccc(C#N)c(F)c2)ccc1O [Example 100, (E)-3-(4-((1-(3-Cyano-4-(4-cyano-3-fluorophenyl)-5-(4-hydroxy-3-methoxyphenyl)pyridin-2-yl)piperidin-4-yl)amino)methyl) phenyl)-N-hydroxyacrylamide hydrochloride]
- IC50 (pan-HDAC): 35.5 nM
- IC50 (NCI-H69 cells; [1]): 0.104 µM
- IC50 (HDAC8): 36 nM
- IC50 (LSD1): 0.0495 µM
- IC50 (NCI-H1417 cells; [2]): 0.118 µM
- IC50 (DU145 cells; [3]): 0.313 µM

Compound: N#Cc1ccc(-c2c(-c3ccc4c(c3)OCO4)cnc(N3CCC(NCc4ccc(/C=C/C(=O)NO)cc4)CC3)c2C#N)cc1F [Example 103, (E)-3-(4-(((1-(5-(Benzo[d][1,3]dioxol-5-yl)-3-cyano-4-(4-cyano-3-fluorophenyl)pyridin-2-yl)piperidin-4-yl)amino)methyl)phenyl)-N-hydroxyacrylamide formate]
- IC50 (pan-HDAC): 62.3 nM
- IC50 (NCI-H69 cells; [1]): 0.0836 µM
- IC50 (HDAC8): 159 nM
- IC50 (LSD1): 0.0142 µM
- IC50 (NCI-H1417 cells; [2]): 0.0433 µM
- IC50 (DU145 cells; [3]): 0.254 µM

Compound: COc1ccc(-c2cnc(N3CCC(NCCCc4ccc(C(=O)NO)cc4)CC3)c(C#N)c2-c2ccc(C#N)c(F)c2)cc1O [Example 107, 4-(3-(3-Cyano-4-(4-cyano-3-fluorophenyl)-5-(3-hydroxy-4-methoxyphenyl)pyridin-2-yl)piperidin-4-yl)amino)propyl)-N-hydroxybenzamide formate]
- IC50 (pan-HDAC): 378 nM
- IC50 (NCI-H69 cells; [1]): 1.04 µM
- IC50 (HDAC8): 50.6 nM
- IC50 (LSD1): 0.00129 µM
- IC50 (NCI-H1417 cells; [2]): 0.0104 µM
- IC50 (DU145 cells; [3]): 2.33 µM

Compound: COc1ccc(-c2cnc(N3CCC(NCc4ccc(C#CC(=O)NO)cc4)CC3)c(C#N)c2-c2ccc(C#N)c(F)c2)cc1O [Example 109, 3-(4-(1-(3-Cyano-4-(4-cyano-3-fluorophenyl)-5-(3-hydroxy-4-methoxyphenyl)pyridin-2-yl)piperidin-4-yl)amino)methyl) phenyl)-N-hydroxypropiolamide formate]
- IC50 (pan-HDAC): 657 nM
- IC50 (NCI-H69 cells; [1]): 0.411 µM
- IC50 (HDAC8): 391 nM
- IC50 (LSD1): 0.00419 µM
- IC50 (NCI-H1417 cells; [2]): 0.00276 µM
- IC50 (DU145 cells; [3]): 3.82 µM

More lines, now with the values ahead:

- IC50 (pan-HDAC): 20.6 nM
- IC50 (NCI-H69 cells; [1]): 3.34 µM
- IC50 (HDAC8): 37.1 nM
- IC50 (LSD1): 0.00016 µM
- IC50 (NCI-H1417 cells; [2]): 0.00225 µM
- IC50 (DU145 cells; [3]): 6.34 µM
Compound: COc1ccc(-c2cnc(N3CCC(NCCNc4ncc(C(=O)NO)cn4)CC3)c(C#N)c2-c2ccc(C#N)c(F)c2)cc1O [Example 115, 2-(2-(1-(3-Cyano-4-(4-cyano-3-fluorophenyl)-5-(3-hydroxy-4-methoxyphenyl)pyridin-2-yl)piperidin-4-yl)amino)ethyl) amino)-N-hydroxypyrimidine-5-carboxamide formate]

- IC50 (pan-HDAC): 1310 nM
- IC50 (NCI-H69 cells; [1]): 0.938 µM
- IC50 (HDAC8): 1950 nM
- IC50 (LSD1): 0.00033 µM
- IC50 (NCI-H1417 cells; [2]): 0.0111 µM
- IC50 (DU145 cells; [3]): 3.77 µM
Compound: COc1ccc(-c2cnc(N3CCC(NCCc4ccc(CC(=O)NO)cc4)CC3)c(C#N)c2-c2ccc(C#N)c(F)c2)cc1O [Example 120, 2-(4-(2-((1-(3-Cyano-4-(4-cyano-3-fluorophenyl)-5-(3-hydroxy-4-methoxyphenyl)pyridin-2-yl)piperidin-4-yl)amino)ethyl)phenyl)-N-hydroxyacetamide formate]

- IC50 (pan-HDAC): 404 nM
- IC50 (NCI-H69 cells; [1]): 0.127 µM
- IC50 (HDAC8): 17.2 nM
- IC50 (LSD1): 0.00035 µM
- IC50 (NCI-H1417 cells; [2]): 0.0156 µM
- IC50 (DU145 cells; [3]): 2.22 µM
Compound: COc1ccc(-c2cnc(N3CCC(NCC4CCN(c5ccc(C(=O)NO)cc5)CC4)CC3)c(C#N)c2-c2ccc(C#N)c(F)c2)cc1O [Example 121, 4-(4-((1-(3-Cyano-4-(4-cyano-3-fluorophenyl)-5-(3-hydroxy-4-methoxyphenyl)pyridin-2-yl)piperidin-4-yl)amino)methyl) piperidin-1-yl)-N-hydroxybenzamide formate]

- IC50 (pan-HDAC): 226 nM
- IC50 (NCI-H69 cells; [1]): 1.95 µM
- IC50 (HDAC8): 23.4 nM
- IC50 (LSD1): 0.00074 µM
- IC50 (NCI-H1417 cells; [2]): 0.012 µM
- IC50 (DU145 cells; [3]): 3.04 µM
Compound: COc1ccc(-c2cnc(N3CCC(NCCCc4ncc(C(=O)NO)s4)CC3)c(C#N)c2-c2ccc(C#N)c(F)c2)cc1O [Example 125, 2-(3-(3-Cyano-4-(4-cyano-3-fluorophenyl)-5-(3-hydroxy-4-methoxyphenyl)pyridin-2-yl)piperidin-4-yl)amino)propyl)-N-hydroxythiazole-5-carboxamide formate]

- IC50 (pan-HDAC): 5 nM
- IC50 (NCI-H69 cells; [1]): 0.13 µM
- IC50 (HDAC8): 223 nM
- IC50 (LSD1): 0.00039 µM
- IC50 (NCI-H1417 cells; [2]): 0.00201 µM
- IC50 (DU145 cells; [3]): 0.239 µM
Compound: COc1ccc(-c2cnc(N3CCC(NCc4ccc(OCC(=O)NO)c(OC)c4)CC3)c(C#N)c2-c2ccc(C#N)c(F)c2)cc1O [Example 128, 2-(4-((1-(3-Cyano-4-(4-cyano-3-fluorophenyl)-5-(3-hydroxy-4-methoxyphenyl)pyridin-2-yl)piperidin-4-yl)amino)methyl)-2-methoxyphenoxy)-N-hydroxyacetamide formate]

- IC50 (pan-HDAC): 18.2 nM
- IC50 (NCI-H69 cells; [1]): 0.0258 µM
- IC50 (HDAC8): 322 nM
- IC50 (LSD1): 0.00147 µM
- IC50 (NCI-H1417 cells; [2]): 0.00438 µM
- IC50 (DU145 cells; [3]): 0.0869 µM
Compound: N#Cc1ccc(-c2c(-c3ccc(C(F)(F)F)c(O)c3)cnc(N3CCC(NCc4ccc(/C=C/C(=O)NO)cc4)CC3)c2C#N)cc1F [Example 129, (E)-3-(4-(1-(3-Cyano-4-(4-cyano-3-fluorophenyl)-5-(3-hydroxy-4-(trifluoromethyl)phenyl)pyridin-2-yl)piperidin-4-yl)amino)methyl) phenyl)-N-hydroxyacrylamide formate]

- IC50 (pan-HDAC): 3.86 nM
- IC50 (NCI-H69 cells; [1]): 0.103 µM
- IC50 (HDAC8): 171 nM
- IC50 (LSD1): 0.0108 µM
- IC50 (NCI-H1417 cells; [2]): 0.0132 µM
- IC50 (DU145 cells; [3]): 0.235 µM
Compound: COc1ccc(-c2cnc(N3CCC(NCc4ccc(/C=C/C(=O)NO)cc4OC)CC3)c(C#N)c2-c2ccc(C#N)c(F)c2)cc1O [Example 132, (E)-3-(4-(((1-(3-Cyano-4-(4-cyano-3-fluorophenyl)-5-(3-hydroxy-4-methoxyphenyl)pyridin-2-yl)piperidin-4-yl)amino)methyl)-3-methoxyphenyl)-N-hydroxyacrylamide formate]
